Measured values reported in US11091478B2 (Fochon Pharmaceuticals, Ltd., priority 2017, dated 2021).
pIC50: −log10 of the molar value. Where two headings read alike, the source gives them in different places.

Assays:
DOHH2 cells = assay: Cell proliferation assay (MTS), DOHH2 cells, 120 h; assay type: cell-based
Procedure, shortened: (§1)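 Proliferation was scored by MTS (2 h, then SDS stop, A490 with 650 nm reference) and IC50 derived. Compound ran at nine final concentrations from 1.5 to 10000 nM. DOHH2 were incubated 120 h and RS4;11 72 h, both plated at 5000 cells/well in RPMI-1640 plus 10% FBS.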

RS4;11 cells = assay: Cell proliferation assay (MTS), RS4;11 cells, 72 h; assay type: cell-based
Procedure, shortened: as §1

Row | Compound | pIC50 (RS4;11 cells; Homo sapiens, RS4-11, 72 h) | pIC50 (DOHH2 cells; Homo sapiens, DOHH-2, 120 h) | pIC50 (DOHH2 cells) | pIC50 (RS4;11 cells)
1 | CC1(C)CCC(CN2CCN(c3ccc(C(=O)NS(=O)(=O)c4cc5c(c([N+](=O)[O-])c4)N[C@@H](C(=O)N4CCOCC4)CO5)c(Oc4cnc5[nH]ccc5c4)c3)CC2)=C(c2ccc(Cl)cc2)C1 [Example 2-103] | 7.80 | 6.31 |  | 
2 | C[C@H]1CNc2c(cc(S(=O)(=O)NC(=O)c3ccc(N4CCN(CC5=C(c6ccc(Cl)cc6)CC(C)(C)CC5)CC4)cc3Oc3cnc4[nH]ccc4c3)cc2[N+](=O)[O-])O1 [Example 2-105, (S)-2-((1H-pyrrolo[2,3-b]pyridin-5-yl)oxy)-4-(4-((4′-chloro-5,5-dimethyl-3,4,5,6-tetra-hydro-[1,1′-biphenyl]-2-yl)methyl)piperazin-1-yl)-N-((2-methyl-5-nitro-3,4-dihydro-2H-benzo[b][1,4]oxazin-7-yl)sulfonyl)benza-mide] | 7.46 | 7.29 |  | 
3 | CC(C)[C@@H]1COc2cc(S(=O)(=O)NC(=O)c3ccc(N4CCN(CC5=C(c6ccc(Cl)cc6)CC(C)(C)CC5)CC4)cc3Oc3cnc4[nH]ccc4c3)cc([N+](=O)[O-])c2N1 [Example 2-108, (R)-2-((1H-pyrrolo[2,3-b]pyridin-5-yl)oxy)-4-(4-((4′-chloro-5,5-dimethyl-3,4,5,6-tetra-hydro-[1,1′-biphenyl]-2-yl)methyl)piperazin-1-yl)-N-((3-isopropyl-5-nitro-3,4-dihydro-2H-benzo[b][1,4]oxazin-7-yl)sulfonyl) benzamide] | 7.80 | 7.29 |  | 
4 | CC1(C)CCC(CN2CCN(c3ccc(C(=O)NS(=O)(=O)c4cc5c(c([N+](=O)[O-])c4)N[C@H](C4CC4)CO5)c(Oc4cnc5[nH]ccc5c4)c3)CC2)=C(c2ccc(Cl)cc2)C1 [Example 2-109, (R)-2-((1H-pyrrolo[2,3-b]pyridin-5-yl)oxy)-4-(4-((4′-chloro-5,5-dimethyl-3,4,5,6-tetra-hydro[1,1′-biphenyl]-2-yl)methyl)piperazin-1-yl)-N-((3-cyclopropyl-5-nitro-3,4-dihy-dro-2H-benzo[b][14,]oxazin-7-yl)sulfonyl) benzamide] | 7.96 | 7.25 |  | 
5 | C[C@H]1COc2cc(S(=O)(=O)NC(=O)c3ccc(N4CCN(CC5=C(c6ccc(Cl)cc6)CC(C)(C)CC5)CC4)cc3Oc3cnc4[nH]ccc4c3)cc([N+](=O)[O-])c2N1 [Example 2-111, (S)-2-((1H-pyrrolo[2,3-b]pyridin-5-yl)oxy)-4-(4-((4′-chloro-5,5-dimethyl-3,4,5,6-tetra-hydro-[1,1′-biphenyl]-2-yl)methyl)piperazin-1-yl)-N-((3-methyl-5-nitro-3,4-dihydro-2H-benzo[b][1,4]oxazin-7-yl)sulfonyl)benza-mide] | 7.55 | 7.59 |  | 
6 | CC[C@H]1COc2cc(S(=O)(=O)NC(=O)c3ccc(N4CCN(CC5=C(c6ccc(Cl)cc6)CC(C)(C)CC5)CC4)cc3Oc3cnc4[nH]ccc4c3)cc([N+](=O)[O-])c2N1 [Example 2-112] | 7.96 | 7.82 |  | 
7 | CC1(C)CCC(CN2CCN(c3ccc(C(=O)NS(=O)(=O)c4cc5c(c([N+](=O)[O-])c4)N[C@@H](CC#N)CO5)c(Oc4cnc5[nH]ccc5c4)c3)CC2)=C(c2ccc(Cl)cc2)C1 [Example 2-115, (S)-2-((1H-pyrrolo[2,3-b]pyridin-5-yl)oxy)-4-(4-((4′-chloro-5,5-dimethyl-3,4,5,6-tetra-hydro-[1,1′-biphenyl]-2-yl)methyl)piperazin-1-yl)-N-((3-(cyanomethyl)-5-nitro-3,4-di-hydro-2H-benzo[b][1,4]oxazin-7-yl)sulfonyl-yl)benzamide] |  |  | 7.42 | 8.22
8 | COC[C@H]1COc2cc(S(=O)(=O)NC(=O)c3ccc(N4CCN(CC5=C(c6ccc(Cl)cc6)CC(C)(C)CC5)CC4)cc3Oc3cnc4[nH]ccc4c3)cc([N+](=O)[O-])c2N1 [Example 2-116, (S)-2-((1H-pyrrolo[2,3-b]pyridin-5-yl)oxy)-4-(4-((4′-chloro-5,5-dimethyl-3,4,5,6-tetra-hydro-[1,1′-biphenyl]-2-yl)methyl)piperazin-1-yl)-N-((3-(methoxymethyl)-5-nitro-3,4-dihydro-2H-benzo[b][1,4]oxazin-7-yl)sulfonyl)benzamide] | 7.80 | 7.08 |  | 
9 | CC1(C)CCC(CN2CCN(c3ccc(C(=O)NS(=O)(=O)c4cc5c(c([N+](=O)[O-])c4)N[C@@H](COC(=O)N4CCOCC4)CO5)c(Oc4cnc5[nH]ccc5c4)c3)CC2)=C(c2ccc(Cl)cc2)C1 [Example 2-117, (R)-(7-(N-(2-((1H-pyrrolo[2,3-b]pyridin-5-yl)oxy)-4-(4-((4′-chloro-5,5-dimethyl-3,4,5,6-tetrahydro-[1,1′-biphenyl]-2-yl)methyl)piperazin-1-yl)benzoyl)sulfamoyl)-5-nitro-3,4-dihydro-2H-benzo[b][1,4]oxazin-3-yl)methyl morpholine-4-carboxylate] | 7.36 | 7.39 |  | 
10 | COCC[C@H]1COc2cc(S(=O)(=O)NC(=O)c3ccc(N4CCN(CC5=C(c6ccc(Cl)cc6)CC(C)(C)CC5)CC4)cc3Oc3cnc4[nH]ccc4c3)cc([N+](=O)[O-])c2N1 [Example 2-118, (S)-2-((1H-pyrrolo[2,3-b]pyridin-5-yl)oxy)-4-(4-((4′-chloro-5,5-dimethyl-3,4,5,6-tetra-hydro-[1,1′-biphenyl]-2-yl)methyl)piperazin-1-yl)-N-((3-(2-methoxyethyl)-5-nitro-3,4-dihydro-2H-benzo[b][1,4]oxazin-7-yl)sulfonyl)benzamide] | 7.96 | 6.19 |  | 
11 | CC1(C)CCC(CN2CCN(c3ccc(C(=O)NS(=O)(=O)c4cc5c(c([N+](=O)[O-])c4)N[C@@H](CN4CCS(=O)(=O)CC4)CO5)c(Oc4cnc5[nH]ccc5c4)c3)CC2)=C(c2ccc(Cl)cc2)C1 [Example 2-121, (S)-2-((1H-pyrrolo[2,3-b]pyridin-5-yl)oxy)-4-(4-((4′-chloro-5,5-dimethyl-3,4,5,6-tetra-hydro-[1,1′-biphenyl]-2-yl)methyl)piperazin-1-yl)-N-((3-((1,1-dioxidothiomorpholino)methyl)-5-nitro-3,4-dihydro-2H-benzo[b][1,4]oxazin-7-yl)sulfonyl)benzamide] | 7.44 | 7.32 |  | 

Further lines, with some results ahead:

Row | pIC50 (RS4;11 cells; Homo sapiens, RS4-11, 72 h) | Compound | pIC50 (DOHH2 cells; Homo sapiens, DOHH-2, 120 h) | pIC50 (DOHH2 cells) | pIC50 (RS4;11 cells)
12 | 8.00 | CN(C)C(=O)[C@H]1COc2cc(S(=O)(=O)NC(=O)c3ccc(N4CCN(CC5=C(c6ccc(Cl)cc6)CC(C)(C)CC5)CC4)cc3Oc3cnc4[nH]ccc4c3)cc([N+](=O)[O-])c2N1 [Example 2-102, (R)-7-(N-(2-((1H-pyrrolo[2,3-b]pyridin-5-yl)oxy)-4-(4-((4′-chloro-5,5-dimethyl-3,4,5,6-tetrahydro-[1,1′-biphenyl]-2-yl)methyl)pi-perazin-1-yl)benzoyl)sulfamoyl)-N,N-dimethyl-5-nitro-3,4-dihydro-2H-benzo[b] [1,4]oxazine-3-carboxamide] | 7.02 |  | 
13 | 8.15 | CN1CCN(C(=O)[C@H]2COc3cc(S(=O)(=O)NC(=O)c4ccc(N5CCN(CC6=C(c7ccc(Cl)cc7)CC(C)(C)CC6)CC5)cc4Oc4cnc5[nH]ccc5c4)cc([N+](=O)[O-])c3N2)CC1 [Example 2-104, (R)-2-((1H-pyrrolo[2,3-b]pyridin-5-yl)oxy)-4-(4-((4′-chloro-5,5-dimethyl-3,4,5,6-tetra-hydro[1,1′-biphenyl]-2-yl)methyl)piperazin-1-yl)-N-((3-(4-methylpiperazine-1-carbo-nyl)-5-nitro-3,4-dihydro-2H-benzo[b][1,4]oxazin-7-yl)sulfonyl)benzamide] | 6.76 |  | 
14 | 8.05 | C[C@@H]1COc2cc(S(=O)(=O)NC(=O)c3ccc(N4CCN(CC5=C(c6ccc(Cl)cc6)CC(C)(C)CC5)CC4)cc3Oc3cnc4[nH]ccc4c3)cc([N+](=O)[O-])c2N1 [Example 2-106, (R)-2-((1H-pyrrolo[2,3-b]pyridin-5-yl)oxy)-4-(4-((4′-chloro-5,5-dimethyl-3,4,5,6-tetra-hydro-[1,1′-bipehnyl]-2-yl)methyl)piperazin-1-yl)-N-((3-methyl-5-nitro-3,4-dihydro-2H-benzo[b][1,4]oxazin-7-yl)sulfonyl)benza-mide] | 7.72 |  | 
15 | 8.10 | CC[C@@H]1COc2cc(S(=O)(=O)NC(=O)c3ccc(N4CCN(CC5=C(c6ccc(Cl)cc6)CC(C)(C)CC5)CC4)cc3Oc3cnc4[nH]ccc4c3)cc([N+](=O)[O-])c2N1 [Example 2-107] | 7.66 |  | 
16 | 8.70 | COC[C@@H]1COc2cc(S(=O)(=O)NC(=O)c3ccc(N4CCN(CC5=C(c6ccc(Cl)cc6)CC(C)(C)CC5)CC4)cc3Oc3cnc4[nH]ccc4c3)cc([N+](=O)[O-])c2N1 [Example 2-110, (R)-2-((1H-pyrrolo[2,3-b]pyridin-5-yl)oxy)-4-(4-((4′-chloro-5,5-dimethyl-3,4,5,6-tetra-hydro-[1,1′-biphenyl]-2-yl)methyl)piperazin-1-yl)-N-((3-(methoxymethyl)-5-nitro-3,4-dihydro-2H-benzo[b][1,4]oxazin-7-yl)sulfo-nyl)benzamide] | 7.02 |  | 
17 | 8.22 | CC(C)[C@H]1COc2cc(S(=O)(=O)NC(=O)c3ccc(N4CCN(CC5=C(c6ccc(Cl)cc6)CC(C)(C)CC5)CC4)cc3Oc3cnc4[nH]ccc4c3)cc([N+](=O)[O-])c2N1 [Example 2-113, (S)-2-((1H-pyrrolo[2,3-b]pyridin-5-yl)oxy)-4-(4-((4′-chloro-5,5-dimethyl-3,4,5,6-tetra-hydro-[1,1′-biphenyl]-2-yl)methyl)piperazin-1-yl)-N-((3-isopropyl-5-nitro-3,4-dihydro-2H-benzo[b][1,4]oxazin-7-yl)sulfonyl) benzamide] | 7.70 |  | 
18 | 9.00 | CC1(C)CCC(CN2CCN(c3ccc(C(=O)NS(=O)(=O)c4cc5c(c([N+](=O)[O-])c4)N[C@@H](C4CC4)CO5)c(Oc4cnc5[nH]ccc5c4)c3)CC2)=C(c2ccc(Cl)cc2)C1 [Example 2-114, (S)-2-((1H-pyrrolo[2,3-b]pyridin-5-yl)oxy)-4-(4-((4′-chloro-5,5-dimethyl-3,4,5,6-tetra-hydro-[1,1′-biphenyl]-2-yl)methyl)piperazin-1-yl)-N-((3-cyclopropyl-5-nitro-3,4-di-hydro-2H-benzo[b][1,4]oxazin-7-yl)sulfonyl)benzamide] | 7.32 |  | 
